Laboratory results as given in patent publication US20150259371A1, “METHODS AND COMPOUNDS FOR INHIBITING GLYCOSYLTRANSFERASES” (SIMON FRASER UNIVERSITY, priority 2010, published 2015).
“Also recorded” adds a separate entry of the source.

System: O-GlcNAc levels in different cell lines (COS-7, CHO, SK-N-SH, HepG2, PC12, mouse hybridoma, EMEG32-/-)
Test: Western blot of O-GlcNAc levels in various cell lines
Format: cell-based
Conditions: 50 μM (100 μM for PC12), 24 h; listed as Ac-5SGlcNAc
Procedure: FIG. 2L. Western blots of cell lysates from different cell lines following no (C), Ac-GlcNAc (G) or Ac-5SGlcNAc (5SG) administration at 50 μM (or 100 μM for PC12 cells) for 24 h. Upper panel, probed with anti-O-GlcNAc antibody (CTD110.6); lower panel, anti-actin antibody. Cell lines used: COS-7 (African green monkey kidney cell line), CHO (Chinese hamster ovary cell line), SK-N-SH (human neuroblastoma cell line), HepG2 (human liver carcinoma cell line), PC12 (rat adrenal medulla pheochromocytoma cell line, which terminally differentiate upon nerve growth factor treatment), mouse hybridoma cell line and EMEG32^−/− (mouse embryonic fibroblasts deficient in glucosamine-6-phosphate acetyltransferase).
Cell culture: Cells were grown in an incubator at 37° C. and 5% CO2 atmosphere. Media and serum were purchased from Invitrogen. COS-7 cells were cultured in Dulbecco's modified Eagle's medium (DMEM) with 5% fetal bovine serum (FBS), and were typically 80-100% confluent prior to experimentation. HepG2, SK-N-SH, and EMEG32^−/− cells were cultured in Dulbecco's modified Eagle's medium (DMEM) with 5% fetal bovine serum (FBS), CHO cells in DMEMF-12 with 5% FBS and PC12 cells in DMEM with 5% FBS and 5% horse serum. Prior to experimentation, PC12 cells were plated at a density of 3-4×10^5 cells10 cm plate, which had been pre-treated with 5 μgcm^2 rat tail collagen (BD Biosciences). […]

CC(=O)NC1C(OC(C)=O)SC(COC(C)=O)C(OC(C)=O)C1OC(C)=O [Compound 9, N-Acetyl-1,3,4,6-tetra-O-acetyl-α-D-5-thio-glucosamine]
O-GlcNAc levels in the cell lines tested: Various other cell lines showed equivalent responses; also recorded: near complete loss of O-GlcNAc in the cell lines tested
